Assay results: patent US10654822B2, “Composition and rodenticidal bait comprising flocoumafen, and process for controlling target rodent pests” (priority 2015, dated 2020)
Like-named read-outs stand apart in the source and are kept apart here.

Type: in vivo, Sprague-Dawley rats
Details: mean of three rats, liver
Method: The configurational stereoisomers of flocoumafen are separated by high-pressure liquid chromatography using a LUX® Cellulose-4 chiral column (00F-4490-B0, Phenomenex, Le Pecq, France) as stationary phase and a mixture formed from acetonitrile (A) and water comprising 0.1% by volume of formic acid (B), with an A/B volume ratio of 92/8, as mobile phase with a flow rate of the liquid mobile phase in the chromatography column of 0.25 mL/minute. 1 μL of extract comprising flocoumafen at a concentration of 1 μg/mL of acetonitrile is injected. Detection is performed by tandem mass spectrometry (MS/MS) in negative electrospray ionization (ESI) mode. The temperature of the nebulizer gas is 350° C. and its flow rate is 8 L/minute. The pressure of the nebulizer gas is brought to 2700 hPa. In particular, the MRM (“Multiple Reaction Monitoring”) transitions m/z 541.1→382.1 and m/z 541.1→161, corresponding to the flocoumafen signal, are analysed.
Extraction of Flocoumafen from the Liver of Rats Tube-Fed with Flocoumafen
About 0.525 g (±0.025 g) of rat liver is weighed out accurately and placed in a 50 mL polypropylene tube. 10 mL of acetone are added and the suspension is homogenized using an Ultra-Turrax® homogenizer/disperser for a time of about 30 seconds. The homogenizer/disperser shaft is rinsed with hot water and then twice with 20 mL of acetone in a polypropylene tube. The homogenate is centrifuged for 5 minutes at a centrifugation speed of 3000 rpm (revolutions per minute). The supernatant is collected and transferred into a test tube. The sample is subjected to evaporation under a stream of nitrogen (N2) at a temperature of 40° C. so as to form a dry extract.
1 mL of acetonitrile is added to the tube containing the dry extract so as to dissolve it. The acetonitrile solution is washed twice successively with 1 mL of hexane. The lipid-free extract is dried under a stream of nitrogen (N2) at a temperature of 40° C. and is then taken up in 0.5 mL of methanol and dissolved by vortex stirring. 0.5 mL of ultra-pure (Milli-Q) water is then added. The sample is vortex-homogenized.
1 mL of dichloromethane (CH2Ct2), then 1 mL of methanol (CH3OH), then 1 mL of ultra-pure (Milli-Q) water are passed through an Oasis HLB 1 cc cartridge (WAT094225, Waters). The lipid-free liver extract (1 mL MeOH/Milli-Q H2O) containing flocoumafen is then loaded onto the top of the cartridge beforehand. The liver extract penetrates through the cartridge by gravity on contact with the solid phase of the cartridge. 1 mL of washing solution formed from methanol (CH3OH) and ultra-pure water (H2O) in a 90/10 volume proportion is loaded onto the top of the cartridge. The cartridge is dried by suction under vacuum connected to the bottom of the cartridge. 1 mL of eluting solution formed from dichloromethane (CH2Cl2) and methanol (CH3OH) in a 90/10 volume proportion is then loaded onto the top of the cartridge and an eluate comprising flocoumafen is collected at the bottom of the cartridge. The solvent of the eluate is evaporated off under a stream of nitrogen (N2) at a temperature of 40° C. The sample is taken up in 0.5 mL of acetonitrile (NC—CH3) and the acetonitrile solution containing flocoumafen is filtered through a 0.2 μm porosity filter.
Hepatic Persistence of the Configurational Stereoisomers (E1, E2, E3 and E4) of Flocoumafen in Rats
A solution comprising flocoumafen in a mixture of vegetable oil and 5% of DMSO so that the amount of flocoumafen ingested by each rat is about 2.3 mg per kilogram of rat is administered orally (per os) to 8-week-old male and female laboratory rats (Sprague-Dawley rats, Charles River, Saint-Germain-sur-l'Arbresle, France) weighing between 180 and 200 g. The tube-fed rats are treated daily by subcutaneous administration of a dose of vitamin K1 at a rate of 1 U per rat so as to keep the rats alive throughout the experiment. […]

[1] = female rats, D+1 after oral tube-feeding of flocoumafen about 2.3 mg/kg (mixture of 4 stereoisomers)
[2] = female rats, D+3 after oral tube-feeding of flocoumafen about 2.3 mg/kg (mixture of 4 stereoisomers)
[3] = female rats, D+7 after oral tube-feeding of flocoumafen about 2.3 mg/kg (mixture of 4 stereoisomers)
[4] = male rats, D+1 after oral tube-feeding of flocoumafen about 2.3 mg/kg (mixture of 4 stereoisomers)
[5] = male rats, D+3 after oral tube-feeding of flocoumafen about 2.3 mg/kg (mixture of 4 stereoisomers)
[6] = male rats, D+7 after oral tube-feeding of flocoumafen about 2.3 mg/kg (mixture of 4 stereoisomers)

Work on `O=c1oc2ccccc2c(O)c1C1CC(c2ccc(OCc3ccc(C(F)(F)F)cc3)cc2)Cc2ccccc21` (single isomer, unassigned) [Enantiomer E1, flocoumafen] yielded a Hepatic concentration [1] of 4585 ng/g, a Hepatic concentration [2] of 2692 ng/g and a Hepatic concentration [3] of 1196 ng/g. It also gave a Hepatic concentration [4] of 196 ng/g, a Hepatic concentration [5] of 47 ng/g and a Hepatic concentration [6] of 0 ng/g.

Work on `O=c1oc2ccccc2c(O)c1C1CC(c2ccc(OCc3ccc(C(F)(F)F)cc3)cc2)Cc2ccccc21` (single isomer, unassigned) [Enantiomer E2, flocoumafen] yielded a Hepatic concentration [1] of 5396 ng/g, a Hepatic concentration [2] of 2522 ng/g and a Hepatic concentration [3] of 469 ng/g. The Hepatic concentration [4] was 3904 ng/g, the Hepatic concentration [5] was 1962 ng/g and the Hepatic concentration [6] was 319 ng/g.

Compound `O=c1oc2ccccc2c(O)c1C1CC(c2ccc(OCc3ccc(C(F)(F)F)cc3)cc2)Cc2ccccc21` (single isomer, unassigned) [Enantiomer E3, flocoumafen] has a Hepatic concentration [1] of 5478 ng/g, a Hepatic concentration [2] of 2734 ng/g and a Hepatic concentration [3] of 1228 ng/g. It also gave a Hepatic concentration [4] of 3301 ng/g, a Hepatic concentration [5] of 1862 ng/g and a Hepatic concentration [6] of 647 ng/g.

Work on `O=c1oc2ccccc2c(O)c1C1CC(c2ccc(OCc3ccc(C(F)(F)F)cc3)cc2)Cc2ccccc21` (single isomer, unassigned) [Enantiomer E4, flocoumafen] yielded a Hepatic concentration [1] of 10342 ng/g, a Hepatic concentration [2] of 7765 ng/g and a Hepatic concentration [3] of 5054 ng/g. For the same compound, the Hepatic concentration [4] was 8143 ng/g, the Hepatic concentration [5] was 9906 ng/g and the Hepatic concentration [6] was 2623 ng/g.
